The source made the active and inactive calls. How the calls were made is not given here.

The data set concerns rodent carcinogenicity bioassays, tumor incidence. The data set is described as follows: CCRIS carcinogenicity studies. An outline of the steps:
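Archive of carcinogenicity, mutagenicity, tumor promotion and tumor inhibition results drawn from journals, NCI reports and other sources, expert-reviewed; covers 1985-2011 and is no longer updated.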

Take `O=[N+]([O-])c1cc([N+](=O)[O-])c2ccc3cccc4ccc1c2c43`: the carcinogen call was “active; positive” (Species: RAT, Strain/Sex: STRAIN CD/FEMALE, Route: INTRAGASTRIC, Dose: 10 UMOL IN DMSO 3/WK FOR 4 WK (TOTAL DOSE: 16 UMOL/RAT) (STUDY DURATION: 78 WK), Tumor Site: Type of Lesion: ADRENAL GLAND: CORTICAL ADENOMA, PITUITARY GLAND: CARCINOMA); “active; positive” (Species: RAT, Strain/Sex: STRAIN CD/FEMALE, Route: INTRAPERITONEAL, Dose: 0, 10 UMOL IN DMSO 3/WK FOR 4 WK (TOTAL DOSE: 16 UMOL/RAT) (STUDY DURATION: 78 WK), Tumor Site: Type of Lesion: MAMMARY GLAND: ADENOCARCINOMA, FIBROADENOMA, ADENOMA); “active; positive” (Species: RAT, Strain/Sex: STRAIN-CD/FEMALE, Route: SUBCUTANEOUS, Dose: 0, 6.3 UMOL (TOTAL DOSE) ADMINISTERED OVER 8 WK BEGINNING ON DAY OF BIRTH (STUDY DURATION: 67 WK), Tumor Site: Type of Lesion: INTEGUMENTARY SYSTEM: MALIGNANT FIBROUS HISTIOCYTOMA).

For the molecule `O=C(O)CC(O)(CC(=O)O)C(=O)O`, the carcinogen call (Species: MOUSE, Strain/Sex: BC3F1/FEMALE, Route: IP INJECTION ONCE, Dose: 100, 500, 1000, 5000 BQ (STUDY DURATION: LIFESPAN), Dose: 100, 500, 1000, 5000 BQ (STUDY DURATION: LIFESPAN), Tumor Site: Type of Lesion: BONE: OSTEOSARCOMAS) is “active; positive”; the carcinogen call (Species: MOUSE, Strain/Sex: C3H/FEMALE, Route: IP INJECTION ONCE, Dose: 100, 500, 1000, 5000 BQ (STUDY DURATION: LIFESPAN), Dose: 100, 500, 1000, 5000 BQ (STUDY DURATION: LIFESPAN), Tumor Site: Type of Lesion: BONE: OSTEOSARCOMAS) is “active; positive”; the carcinogen call (Species: MOUSE, Strain/Sex: C57BL/6/FEMALE, Route: IP INJECTION ONCE, Dose: 100, 500, 1000, 5000 BQ (STUDY DURATION: LIFESPAN), Dose: 100, 500, 1000, 5000 BQ (STUDY DURATION: LIFESPAN), Tumor Site: Type of Lesion: BONE: OSTEOSARCOMAS) is “active; positive”.

As for `NC(=O)OCCO`, under “Species: MOUSE, Strain/Sex: STRAIN-A/MALE, Route: INTRAPERITONEAL, Dose: 0, 1.12, 4.6, 11.2 MMOL/KG IN ISOTONIC SALINE ONCE AT 6 WK OF AGE (STUDY DURATION: 16 WK), Dose: 0, 1.12, 4.6, 11.2 MMOL/KG IN ISOTONIC SALINE ONCE AT 6 WK OF AGE (STUDY DURATION: 16 WK), Tumor Site: Type of Lesion: LUNG: ADENOMA”, the carcinogen call was “active; positive”.

For `c1cc2ccc3cc4cccc5ccc6cc(c1)c2c3c6c54`, the carcinogen call reads like this: (Species: MOUSE, Route: DERMAL, Tumor Site: Type of Lesion: INTEGUMENTARY SYSTEM (SKIN)) “active; positive”; (Species: RAT, Strain/Sex: OSBORNE-MENDEL/FEMALE, Route: LUNG IMPLANT, Dose: 0, 0.16, 0.83 MG IN BEESWAX/TRIOCTANOIN (STUDY DURATION: LIFETIME), Dose: 0, 0.16, 0.83 MG IN BEESWAX/TRIOCTANOIN (STUDY DURATION: LIFETIME), Tumor Site: Type of Lesion: LUNG: EPIDERMOID CARCINOMA) “active; positive”.

Regarding `CC(Cl)CCl` (stereo not drawn), the carcinogen call is “active; positive” (Species: MOUSE, Strain/Sex: B6C3F1/FEMALE, Route: GAVAGE, Dose: 0, 125, 250 MG/KG IN CORN OIL 5 D/WK FOR 103 WK (STUDY DURATION: 104 WK), Dose: 0, 125, 250 MG/KG IN CORN OIL 5 D/WK FOR 103 WK (STUDY DURATION: 104 WK), Tumor Site: Type of Lesion: LIVER: ADENOMA, ADENOMA OR CARCINOMA); “active; positive” (Species: MOUSE, Strain/Sex: B6C3F1/MALE, Route: GAVAGE, Dose: 0, 125, 250 MG/KG IN CORN OIL 5 D/WK FOR 103 WK (STUDY DURATION: 104 WK), Dose: 0, 125, 250 MG/KG IN CORN OIL 5 D/WK FOR 103 WK (STUDY DURATION: 104 WK), Tumor Site: Type of Lesion: LIVER: ADENOMA, ADENOMA OR CARCINOMA); “equivocal” (Species: RAT, Strain/Sex: F344/FEMALE, Route: GAVAGE, Dose: 0, 125, 150 MG/KG IN CORN OIL 5 D/WK FOR 103 WK (STUDY DURATION: 104 WK), Dose: 0, 125, 150 MG/KG IN CORN OIL 5 D/WK FOR 103 WK (STUDY DURATION: 104 WK), Tumor Site: Type of Lesion: MAMMARY GLAND: ADENOCARCINOMA); “inactive; negative” (Species: RAT, Strain/Sex: F344/MALE, Route: GAVAGE, Dose: 0, 62, 125 MG/KG IN CORN OIL 5 D/WK FOR 103 WK (STUDY DURATION: 104 WK), Dose: 0, 62, 125 MG/KG IN CORN OIL 5 D/WK FOR 103 WK (STUDY DURATION: 104 WK)).

With `C1=Cc2cc3ccccc3c3cccc1c23`, the carcinogen call was “inactive; negative” (Species: MOUSE, Strain/Sex: BLU:HA/FEMALE, Route: INTRAPERITONEAL, Dose: 0, 175, 437.5 UG/KG/D ON DAYS 1 (1/7 TOTAL DOSE), 8 (2/7 TOTAL DOSE), AND 15 (4/7 TOTAL DOSE) AFTER BIRTH (STUDY DURATIO, Dose: 0, 175, 437.5 UG/KG/D ON DAYS 1 (1/7 TOTAL DOSE), 8 (2/7 TOTAL DOSE), AND 15 (4/7 TOTAL DOSE) AFTER BIRTH (STUDY DURATIO); “active; positive” (Species: MOUSE, Strain/Sex: BLU:HA/MALE, Route: INTRAPERITONEAL, Dose: 0, 175, 437.5 UG/KG/D ON DAYS 1 (1/7 TOTAL DOSE), 8 (2/7 TOTAL DOSE), AND 15 (4/7 TOTAL DOSE) AFTER BIRTH (STUDY DURATIO, Dose: 0, 175, 437.5 UG/KG/D ON DAYS 1 (1/7 TOTAL DOSE), 8 (2/7 TOTAL DOSE), AND 15 (4/7 TOTAL DOSE) AFTER BIRTH (STUDY DURATIO, Tumor Site: Type of Lesion: LUNG: ADENOMA); “inactive; negative” (Species: MOUSE, Strain/Sex: CD-1/FEMALE, Route: INTRAPERITONEAL, Dose: 0, 175, 437.5, 875 UG/KG/D ON DAYS 1 (1/7 TOTAL DOSE), 8 (2/7 TOTAL DOSE), AND 15 (4/7 TOTAL DOSE) AFTER BIRTH (STUDY DU, Dose: 0, 175, 437.5, 875 UG/KG/D ON DAYS 1 (1/7 TOTAL DOSE), 8 (2/7 TOTAL DOSE), AND 15 (4/7 TOTAL DOSE) AFTER BIRTH (STUDY DU); “active; positive” (Species: MOUSE, Strain/Sex: CD-1/MALE, Route: INTRAPERITONEAL, Dose: 0, 175, 437.5, 875 UG/KG/D ON DAYS 1 (1/7 TOTAL DOSE), 8 (2/7 TOTAL DOSE), AND 15 (4/7 TOTAL DOSE) AFTER BIRTH (STUDY DU, Dose: 0, 175, 437.5, 875 UG/KG/D ON DAYS 1 (1/7 TOTAL DOSE), 8 (2/7 TOTAL DOSE), AND 15 (4/7 TOTAL DOSE) AFTER BIRTH (STUDY DU, Tumor Site: Type of Lesion: LUNG: ADENOMA OR ADENOCARCINOMA, LIVER: TUMOR).

On to `Oc1ccc2ccc3c4ccc5ccccc5c4c4c(c3c2c1O)O4`, for which the carcinogen call by setting is: (Species: MOUSE, Strain/Sex: ICR/FEMALE, Route: INTRAPERITONEAL, Dose: 0, 25 NMOL (TOTAL DOSE) ADMINISTERED IN DOSES OF 1/7, 2/7, AND 4/7 ON DAYS 1, 7, AND 15 OF LIFE, RESPECTIVELY (STUDY DUR, Tumor Site: Type of Lesion: LUNG: TUMOR) “active; positive”; (Species: MOUSE, Strain/Sex: ICR/FEMALE, Route: INTRAPERITONEAL, Dose: 0, 25 NMOL TOTAL DOSE INJECTED IN DOSES OF 1/7 ON DAY 1, 2/7 ON DAY 8, AND 4/7 ON DAY 15 OF LIFE (STUDY DURATION: 35 WK), Tumor Site: Type of Lesion: LIVER: TUMOR, LUNG: TUMOR) “active; positive”; (Species: MOUSE, Strain/Sex: ICR/MALE, Route: INTRAPERITONEAL, Dose: 0, 25 NMOL (TOTAL DOSE) ADMINISTERED IN DOSES OF 1/7, 2/7, AND 4/7 ON DAYS 1, 7, AND 15 OF LIFE, RESPECTIVELY (STUDY DUR, Tumor Site: Type of Lesion: LUNG: TUMOR, LIVER: TUMOR) “active; positive”; (Species: MOUSE, Strain/Sex: ICR/MALE, Route: INTRAPERITONEAL, Dose: 0, 25 NMOL TOTAL DOSE INJECTED IN DOSES OF 1/7 ON DAY 1, 2.7 ON DAY 8, AND 4/7 ON DAY 15 OF LIFE (STUDY DURATION: 35 WK), Tumor Site: Type of Lesion: LUNG:TUMOR, LIVER: TUMOR) “active; positive”; (Species: RAT, Strain/Sex: CD-1/FEMALE, Route: INJECTION, Dose: 0, 0.2 UMOL IN 0.1 ML DMSO INJECTED BENEATH EACH OF THE 6 NIPPLES ON THE LEFT SIDE (STUDY DURATION: 41 WK), Tumor Site: Type of Lesion: MAMMARY GLAND: TUMOR) “active; positive”; (Species: RAT, Strain/Sex: STRAIN-CD/FEMALE, Route: INJECTION, Dose: 0, 0.2 UMOL IN 0.1 ML DMSO INJECTED UNDER EACH OF THE 3 LEFT THORACIC NIPPLES FOLLOWED THE NEXT DAY BY SIMILAR TREATMENT, Tumor Site: Type of Lesion: MAMMARY GLAND: TUMOR) “active; positive”.
